Counter-ions that a name gives are not always drawn.
What was measured:
[1] = tested on: NMDA-decreased locomotor activities; test: Open field locomotor activity test with icv NMDA (Example 2)
Protocol: In this example, the combination of TP with M (memantine) in three different dosage ratios of 6:1, 3:1, and 10:1 respectively; these are TPM6 (TP 30 mg/kg/day:M 5 mg/kg/day), TPM3 (TP 15 mg/kg/day:M 5 mg/kg/day) and TPM10 (TP 30 mg/kg/day:M 3 mg/kg/day), respectively.
A large colorless rectangular box with a metallic grid floor was used (70-cm wide, 90-cm long and 60-cm high). The photobeam activity monitors (TruScan coulbourn instruments) was used for measuring real-time X-Y activity track-type plots. Overall pulses were measured in an electromechanical counter as a gross measure of activity and recorded by a PC. Each mouse was allowed to move freely for 5 min but data were not scored, and then the number of squares crossed and the plots of tracking were counted during a period of 30 min for all experiments and quantification of data was by TruScan99 software.

[2] = tested on: mitochondrial membrane potential (ΔΨm); test: Mitochondrial membrane potential, DiOC6(3) (Example 1); type: in vivo, mice; conditions: striatum, 24 hr after excitotoxic injury; control group 85.06%±2.58%
Protocol: (§1) Twenty-four hours after excitotoxic injury, mice were sacrificed by rapid decapitation under anesthesia. The lesioned (left) hemisphere was dissected into striatal and nonstriatal areas. The contralateral hemisphere was then dissected into the corresponding parts. Synaptosomes were prepared essentially as described previously (Andersen J M, Myhre O, Fonnum F. 2003. Discussion of the role of the extracellular signal-regulated kinase-phospholipase A2 pathway in production of reactive oxygen species in Alzheimer's disease. Neurochem Res 28: 319-326.). Briefly, different regions of the brain were removed and placed on ice. […]
Mitochondrial membrane potential (ΔΨm) was measured using the fluorescent dye 3,3-diexyloxacarbocyanine iodide, DiOC6(3) (Chen Y C, Lin-Shiau S Y, Lin J K, 1998b. Involvement of reactive oxygen species and caspase 3 activation in arsenite-induced apoptosis. J Cell Physiol 177: 324-333.). Synaptosomes were prepared as described above and diluted 1:40 in Tris buffer, followed by the addition of DiOC6(3) to a final concentration of 1.5 M. After 20 min of incubation at 37° C., fluorescence was measured in a Microplate Fluorometer (Labsystems, Helsinki, Finland) with an excitation wavelength of 484 nm and an emission wavelength of 501 nm.

[3] = tested on: NMDA-induced neurotoxicities; test: Elevated plus maze with icv NMDA (Example 2)
Protocol: In this example, the combination of TP with M (memantine) in three different dosage ratios of 6:1, 3:1, and 10:1 respectively; these are TPM6 (TP 30 mg/kg/day:M 5 mg/kg/day), TPM3 (TP 15 mg/kg/day:M 5 mg/kg/day) and TPM10 (TP 30 mg/kg/day:M 3 mg/kg/day), respectively. Their neuroprotective effects were evaluated after pretreatment for fourteen days or one day prior to the intracerebroventricular injection (icy) of 8 mM NMDA (3 μl).
For testing, mice were individually placed in the center of the maze facing a closed arm and allowed 5 min of free exploration. The number of entries into open arms, the number of entries into closed arms, and the total time spent in the open arms and total time spent in the closed arms were measured. Entry was defined as all four paws in the arms.

[4] = tested on: excitotoxic injury (NMDA injected into the left striatum); test: Locomotor activity test before and after intrastriatal NMDA excitotoxic injury (Example 1); type: in vivo; conditions: mice, oral gavage 2 days before intrastriatal NMDA; tested 24 hr after injury; n=8
From the text: Memantine hydrochloride (>98.5% white crystalline powder) was supplied by Lotus Pharmaceutical Co., Ltd. (Taipei, Taiwan). Tea polyphenols were isolated from Longjing green tea with the following composition: epigallocatechin, 14.69%; catechin, 1.13%; epigallocatechin-3-gallate, 41.34%; epicatechin, 5.47%; gallocatechin-3-gallate, 5.16%; epicatechin-3 gallate, 12.54%; coffein, 0.95%; and other catechin derivatives, 18% (Yeh C W, Chen W J, Chiang C T, Lin-Shiau S Y, Lin J K. 2003. Suppression of fatty acid synthase in MCF-7 breast cancer cells by tea and tea polyphenols: a possible mechanism for their hypolipidemic effects. Pharmacogenomics J 3: 267-276.). Memantine (10 mg/kg/day), tea polyphenol (60 mg/kg/day), or a combination (memantine 5 mg/kg/day plus tea polyphenol 30 mg/kg/day) was dissolved in distilled water and administered by oral gavage for 2 consecutive days before causing excitotoxic injury. The experimental design had 5 groups: the sham operation group, the control group, the memantine group, the tea polyphenol group, and the tea polyphenol plus memantine group.
Weight and rectal temperature of each mouse were recorded before the surgical procedure. Anesthesia was induced with 5% chloral hydrate (400 mg/kg). […] Throughout the experimental procedure, mouse rectal temperature was monitored and maintained at 37.0° C.±0.5° C. […]

NO levels = NO levels of brain synaptosomes (Example 2); type: in vivo, mice; conditions: FIG. 11E
[5] = tested on: NMDA-induced neurotoxicities; test: Rotarod motor equilibrium performance with icv NMDA (Example 2)
Protocol: Their neuroprotective effects were evaluated after pretreatment for fourteen days or one day prior to the intracerebroventricular injection (icy) of 8 mM NMDA (3 μl).
One day before the experiment, mice were tested through ten consecutive sessions to stay on the rod and reach the cut off time of 180 s. One day after injection, mice were tested again. The retention time, defined as total time (sec) remaining on the rod, was recorded at each session.

[6] = tested on: mitochondrial succinate reductase; test: Mitochondrial reductase activity, MTT test (Example 1); type: in vivo, mice; conditions: striatum, 24 hr after excitotoxic injury; control group 74.52%±4.86%
Protocol: (§2) Twenty-four hours after excitotoxic injury, mice were sacrificed by rapid decapitation under anesthesia. The lesioned (left) hemisphere was dissected into striatal and nonstriatal areas. The contralateral hemisphere was then dissected into the corresponding parts. Synaptosomes were prepared essentially as described previously (Andersen J M, Myhre O, Fonnum F. 2003. Discussion of the role of the extracellular signal-regulated kinase-phospholipase A2 pathway in production of reactive oxygen species in Alzheimer's disease. Neurochem Res 28: 319-326.). Briefly, different regions of the brain were removed and placed on ice. Specimens with the same areas and treatment conditions were pooled (n=2) and subjected to homogenization on ice in 10 volumes of 0.32M sucrose. Homogenates were centrifuged at 4° C. for 10 min at 600 g. The supernatant was then diluted 1:1 with 1.3M sucrose to obtain a suspension with a final sucrose concentration of 0.8M. This suspension was subjected to centrifugation at 20,000 g for 30 min at 4° C., yielding a myelin-rich supernatant and a pellet (P2) consisting of synaptosomes free of myelin. […]
Mitochondrial metabolic function was assessed by the conversion of the dye methylthiazoletetrazolium (MTT) to purple formazan. […] The formation of formazan was quantitated spectrophotometrically at 570 nm using a Microplate Reader.

Na+, K+-ATPase = Na+, K+-ATPase activity of synaptosomes after excitotoxic injury (Example 1); type: in vivo, mice; conditions: striatum synaptosomes 24 hr after excitotoxic injury
Protocol: as §1
(§3) ATPase activity was determined by measuring the amount of inorganic phosphate (Pi) released from the substrate ATP according to a previously described colorimetric method. The method permitted the quantification of Na^+, K^+-ATPase and Mg^2+-ATPase activity in the same sample. […] Optical density at 630 nm was determined by an ELISA reader (Dynatech MR-7000). The absorbance values obtained were converted to activity values by linear regression using a standard curve for sodium monobasic phosphate included in the assay at various concentrations. […] Protein concentration was determined colorimetrically with a commercial bicinchoninic acid kit (Pierce, Rockford, Ill.).

[7] = tested on: NMDA-induced seizures (icv NMDA); test: NMDA-induced seizure score (Example 2); type: in vivo, mice; conditions: pretreatment before icv 8 mM NMDA (3 μl); control vehicle 90±10%
From the text: In NMDA-treated mice, seizures developed through a sequence of paroxysmal scratching, hypermotility and aircling, tonic-clonic convulsions and, occasionally, death. The following semi-quantitative scale was used for the examination of excitotoxic severity: 0, no response; 1, excessive grooming plus paroxysmal scratching; 2, mild hypermotility; 3, extensive hypermotility and circling; 4, forepaw clonus plus tail hypertonus; 5, generalized tonic-clonic convulsions; 6, “status epilepticus” and death (Marganella et al. 2005. Comparative effects of levobupivacaine and racemic bupivacaine on excitotoxic neuronal death in culture and N-methyl-D-aspartate-induced seizures in mice. Eur. J. Pharmacol. 518: 111-115). The latency (in sec) for generalized (clonic or tonic-clonic convulsions) seizures was also determined.

[8] = tested on: synaptosomal reactive oxygen species; test: Synaptosomal reactive oxygen species formation, DCFH-DA (Example 1); type: in vivo, mice; conditions: mouse excitotoxic injury
Protocol: as §2, with “g.” for “g. The supernatant was then diluted 1:1 with 1.3M sucrose to obtain a suspension with a final sucrose concentration of 0.8M. This suspension was subjected to centrifugation at 20,000 g for 30 min at 4° C., yielding a myelin-rich supernatant and a pellet (P2) consisting of synaptosomes free of myelin.”
Dichlorofluorescein-diacetate (DCFH-DA), a nonfluorescent cell-permeable compound, diffuses passively across cell membranes. […] Plates were incubated with shaking at 37° C. for 30 min before measurement of fluorescence using a Microplate Fluorometer (Labsystems, Helsinki, Finland) with an excitation wavelength of 488 nm, an emission wavelength of 525 nm, and a band width of 5 nm. […] Synaptosomal protein concentration was determined with Pierce BCA reagents according to instructions provided. […]

Mg2+-ATPase = Mg2+-ATPase activity of synaptosomes after excitotoxic injury (Example 1); type: in vivo, mice; conditions: striatum synaptosomes 24 hr after excitotoxic injury
Protocol: as §1, §3

[9] = tested on: intrasynaptosomal Ca2+ concentration; test: Intrasynaptosomal Ca2+ concentration, Fluo-3/AM (Example 1); type: in vivo, mice; conditions: striatum, 4 hr after excitotoxic injury; control group 145.62%±7.16%; n=10
Protocol: Intrasynaptosomal Ca^2+ concentration [Ca^2+]i was determined with the calcium-sensitive fluorochrome fluo-3-acetoxymethyl (Fluo-3/AM) in the presence of acetoxymethyl ester. First, 100 L of P2 synaptosomes was prepared as described above, and 2.5 mM Fluo-3/AM (Sigma, St. Louis, Mo.) was added to each well (final reaction volume of 250 L) and incubated at 37° C. for 30 min. Fluorescence was measured in a Microplate Fluorometer (Labsystems, Helsinki, Finland) with an excitation wavelength of 490 nm and an emission wavelength of 526 nm.

## CC12CC3CC(C)(C1)CC(N)(C3)C2 [memantine, Memantine hydrochloride]
[1]; consecutive 14 days, before NMDA, FIG. 7
  locomotor activities in the open field, drug alone: increased locomotor activities
[1]; drug one day before and consecutive 14 days following NMDA, FIG. 10A
  reversal of decreased locomotor activities induced by NMDA: partially reversed
[1]; drug one day before and consecutive 14 days following NMDA, FIG. 10B
  reversal of decrease in jump activity induced by NMDA: partially reversed
[1]; pretreatment 14 days, FIG. 8A
  order of neuroprotective potencies against NMDA-decreased locomotor activities: TPM10>TPM6>TPM3>M
[1]; pretreatment 14 days, FIG. 8B
  order of neuroprotective potencies against the decreased jump exploratory effect of NMDA: M>TPM6>TPM3>TPM10
[1]; pretreatment 14 days, icv 3 μl of 8 mM NMDA
  NMDA-decreased locomotor activities, prevention by pretreatment: prevented
[1]; pretreatment alone for consecutive 14 days, FIG. 8B
  decrease in jump activity, drug alone: TPM6>M>TPM10
[2]
  mitochondrial membrane potential (ΔΨm): 94.23%±4.19%
[3]; drug one day before and consecutive 14 days following NMDA, FIG. 10C
  attenuation of increased retention time in the opened plus maze by NMDA: followed in order by TPM6, TPM10 and then M
[3]; prolonged use alone, FIG. 8C
  retention time in the open field of elevated plus maze, drug alone: prominently increased retention time
[4]
  improvement of impaired locomotor activity after excitotoxic injury: substantial but nonsignificant improvement
NO levels
  NO levels of brain synaptosomes increased by NMDA: decreased
[5]; drug one day before and consecutive 14 days following NMDA, FIG. 10D
  reversal of disturbance in rotarod motor equilibrium function induced by NMDA: reversed
[5]; prolonged use alone, FIG. 8D
  motor equilibrium function, drug alone: reduced the motor equilibrium function
[6]
  mitochondrial reductase activity (MTT test): 93.53%±8.53%
Na+, K+-ATPase
  attenuation of decreased Na+, K+-ATPase activity: only minimally attenuated
[7]
  attenuations of NMDA-induced seizure scores in percentage: 60±10%
[8]
  effect on increased synaptosomal ROS production: does not have any significant effects
Mg2+-ATPase
  attenuation of decreased Mg2+-ATPase activity: only minimally attenuated
[9]
  intrasynaptosomal Ca2+ concentration [Ca2+]i: 123.04%±6.70%

— patent US9011945B2, “Composition and method for neuroprotection against excitotoxic injury” (priority 2008, dated 2015)
